Assay results taken from patent US20250143304A1, “INSECT, ACARINA AND NEMATODE PEST CONTROL” (SYNGENTA CROP PROTECTION AG, priority 2022, published 2025).
Read-outs that look alike come from different tables or passages of the source.

Tested on: Spodoptera littoralis (Egyptian cotton leaf worm)
Experiment: Spodoptera littoralis (Egyptian cotton leaf worm) feeding/contact activity assay, mortality on cotton leaf discs; synergy by COLBY formula
Type: in vivo
From the text: A synergistic effect exists whenever the action of an active ingredient combination is greater than the sum of the actions of the individual components. The action to be expected E for a given active ingredient combination obeys the so-called COLBY formula and can be calculated as follows (COLBY, S.R. “Calculating synergistic and antagonistic responses of herbicide combination”. Weeds, Vol. 15, pages 20-22 1967): • ppm=milligrams of active ingredient (a.i.) per liter • X=% action by first active ingredient using p ppm of the active ingredient • Y=% action by second active ingredient using q ppm of the active ingredient.
According to Colby, the expected (additive) action of active ingredients A+B using p+q ppm of active
If the action actually observed O is greater than the expected action E, then the action of the combination is super-additive, i.e. there is a synergistic effect. In mathematical terms, synergism corresponds to a positive value for the difference of (O-E). In the case of purely complementary addition of activities (expected activity), said difference (O-E) is zero. A negative value of said difference (O-E) signals a loss of activity compared to the expected activity.
The synergistic biological activity of combinations of component (A) and component (B) as disclosed herein was assessed using a Spodoptera littoralis (Egyptian cotton leaf worm) feeding/contact activity assay. Cotton leaf discs were placed onto agar in 24-well microtiter plates and sprayed with aqueous test solutions prepared from 10′000 ppm DMSO stock solutions. After drying the leaf discs were infested with L1 larvae. The samples were assessed for mortality 3 days after infestation.

[1] = Spodoptera littoralis, foliar, 72 h, read-out: Mortality (%) Observed (%)
[2] = single component alone at 7.8125 mg/L, 3 days after infestation
[3] = single component alone at 15.625 mg/L, 3 days after infestation
[4] = single component alone at 1.95312 mg/L, 3 days after infestation
[5] = single component alone at 3.90625 mg/L, 3 days after infestation
[6] = single component alone at 31.25 mg/L, 3 days after infestation
[7] = single component alone at 62.5 mg/L, 3 days after infestation
[8] = single component alone at 125 mg/L, 3 days after infestation
[9] = single component alone at 250 mg/L, 3 days after infestation

Compound `CC1(C)C(C=C(Cl)Cl)C1C(=O)OC(C#N)c1cccc(Oc2ccccc2)c1` (stereo not drawn) [B-46, alpha-cypermethrin] has a mortality at 0.015625 µg/mL [1] of 0%, a mortality at 0.03125 µg/mL [1] of 0% and a mortality at 0.0625 µg/mL [1] of 0%. The mortality at 0.125 µg/mL [1] was 0%, the mortality at 0.25 µg/mL [1] was 0% and the mortality at 0.5 µg/mL [1] was 60%.

For `CC1(NC(=O)c2cccc3nn(-c4cccnc4)cc23)CC1` [B-4, indazapyroxamet], the “Mortality (%) Observed (%)” value [2] was 0% and the “Mortality (%) Observed (%)” value [3] was 0%.

In the case of `C[n+]1c([O-])c(-c2ccccc2)c(=O)n2c1SC[C@@H]2c1cnc(Cl)s1` [B-5, fenmezoditiaz], the “Mortality (%) Observed (%)” value (single component alone at 0.488281 mg/L, 3 days after infestation) is reported as 0%, the “Mortality (%) Observed (%)” value (single component alone at 0.976562 mg/L, 3 days after infestation) is reported as 0% and the “Mortality (%) Observed (%)” value [4] is reported as 0%. The “Mortality (%) Observed (%)” value [5] was 0% and the “Mortality (%) Observed (%)” value [2] was 0%.

Compound `CN/C(=N\[N+](=O)[O-])NCc1cnc(Cl)s1` [B-38, clothianidin] has a mortality at 0.15625 µg/mL [1] of 0%, a mortality at 0.3125 µg/mL [1] of 0% and a mortality at 0.625 µg/mL [1] of 0%. The mortality at 1.25 µg/mL [1] was 0% and the mortality at 2.5 µg/mL [1] was 0%.

Work on `CNC(=O)c1cc(Cl)cc(C)c1NC(=O)c1cc(Br)nn1-c1ncccc1Cl` [B-43, chlorantraniliprole] yielded a mortality at 0.00390625 µg/mL [1] of 0%, a mortality at 0.0078125 µg/mL [1] of 0% and a mortality at 0.015625 µg/mL [1] of 0%. For the same compound, the mortality at 0.03125 µg/mL [1] was 0%, the mortality at 0.0625 µg/mL [1] was 0% and the mortality at 0.125 µg/mL [1] was 0%.

Compound `CCS(=O)(=O)c1cccnc1-c1cnc(OCC(F)(F)C(F)(F)F)cn1` [B-17, 2-(3-ethylsulfonyl-2-pyridyl)-5-(2,2,3,3,3-pentafluoropropoxy)pyrazine] has a mortality at 0.0390625 µg/mL (Spodoptera littoralis, foliar, 72 h, single component alone at 0.0390625 mg/L, 3 days after infestation, read-out: Mortality (%) Observed (%)) of 0%, a mortality at 0.078125 µg/mL (Spodoptera littoralis, foliar, 72 h, single component alone at 0.078125 mg/L, 3 days after infestation, read-out: Mortality (%) Observed (%)) of 0% and a mortality at 0.15625 µg/mL (Spodoptera littoralis, foliar, 72 h, single component alone at 0.15625 mg/L, 3 days after infestation, read-out: Mortality (%) Observed (%)) of 0%. It also gave a mortality at 0.3125 µg/mL (Spodoptera littoralis, foliar, 72 h, single component alone at 0.3125 mg/L, 3 days after infestation, read-out: Mortality (%) Observed (%)) of 0%, a mortality at 0.625 µg/mL (Spodoptera littoralis, foliar, 72 h, single component alone at 0.625 mg/L, 3 days after infestation, read-out: Mortality (%) Observed (%)) of 0% and a mortality at 1.25 µg/mL (Spodoptera littoralis, foliar, 72 h, single component alone at 1.25 mg/L, 3 days after infestation, read-out: Mortality (%) Observed (%)) of 0%. The mortality at 2.5 µg/mL (Spodoptera littoralis, foliar, 72 h, single component alone at 2.5 mg/L, 3 days after infestation, read-out: Mortality (%) Observed (%)) was 20%.

`C[C@]1(COC(=O)C2CC2)[C@@H]2C[C@H](O)[C@@]3(C)Oc4cc(-c5cccnc5)oc(=O)c4[C@H](O)[C@@H]3[C@@]2(C)CC[C@@H]1OC(=O)C1CC1` [B-134, afidopyropen] was tested, and the “Mortality (%) Observed (%)” value [4] was 0%, the “Mortality (%) Observed (%)” value [5] was 0% and the “Mortality (%) Observed (%)” value [2] was 0%. For the same compound, the “Mortality (%) Observed (%)” value [3] was 0%, the “Mortality (%) Observed (%)” value [6] was 0% and the “Mortality (%) Observed (%)” value [7] was 0%. For the same compound, the “Mortality (%) Observed (%)” value [8] was 0% and the “Mortality (%) Observed (%)” value [9] was 0%.

In the case of `CCC(=O)NCc1ccc(C2=NO[C@@](c3cc(Cl)c(F)c(Cl)c3)(C(F)(F)F)C2)c2c1OCC2` [A-1, N-[[4-[(5S)-5-(3,5-dichloro-4-fluorophenyl)-5-(trifluoromethyl)-4H-isoxazol-3-yl]-2,3-dihydrobenzofuran-7-yl]methyl]propanamide], the mortality at 0.0078125 µg/mL [1] is reported as 0%, the mortality at 0.015625 µg/mL [1] is reported as 0% and the mortality at 0.03125 µg/mL [1] is reported as 0%. It also gave a mortality at 0.0625 µg/mL [1] of 80% and a mortality at 0.125 µg/mL [1] of 100%.

With `CCN(C(=O)c1cnn(C(C)C(C)C)c1C)c1ccnnc1` (stereo not shown) [B-133, dimpropyridaz] the “Mortality (%) Observed (%)” value [3] was 0%, the “Mortality (%) Observed (%)” value [6] was 0% and the “Mortality (%) Observed (%)” value [7] was 0%. The “Mortality (%) Observed (%)” value [8] was 0% and the “Mortality (%) Observed (%)” value [9] was 0%.
